From US20090172831A1, “Methods for the production of plants resistant to HPPD herbicides” (Syngenta Limited, priority 2000, published 2009)
Where “and” joins values, the source holds several entries; their conditions need not be identical. Equal values may be shown once. Read-outs that look alike come from different tables or passages of the source.

How the values were obtained:
Arabidopsis HPPD = biological target: T1, Arabidopsis HPPD (Arabidopsis thaliana, UniProt P93836); assay: Dissociation of enzyme/inhibitor complexes by exchange with 14C-labelled inhibitor (koff; Kd = koff/kon); format: binding
T1 construct: made in house; host or cells: E. coli BL21 (DE3) codon+ RP
T1 sequence (P93836 1-445): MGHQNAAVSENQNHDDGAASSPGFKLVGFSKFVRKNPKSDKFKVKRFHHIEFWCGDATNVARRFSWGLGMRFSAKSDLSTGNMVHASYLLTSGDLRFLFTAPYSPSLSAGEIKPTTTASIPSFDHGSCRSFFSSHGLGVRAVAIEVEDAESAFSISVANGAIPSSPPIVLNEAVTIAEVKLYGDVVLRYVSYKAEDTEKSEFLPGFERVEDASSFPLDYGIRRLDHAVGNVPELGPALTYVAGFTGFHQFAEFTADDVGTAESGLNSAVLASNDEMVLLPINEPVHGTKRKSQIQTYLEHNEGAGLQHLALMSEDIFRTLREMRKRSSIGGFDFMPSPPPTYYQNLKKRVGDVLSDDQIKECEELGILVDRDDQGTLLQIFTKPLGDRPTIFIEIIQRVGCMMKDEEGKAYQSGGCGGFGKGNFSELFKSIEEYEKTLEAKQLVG
Description: It will be appreciated that many suitable methods known in the art for determining such low koff values are suitable for working the current invention. These include measuring rates of exchange of radio or otherwise labelled inhibitors either with or away from the enzyme inhibitor complex. For example enzyme inhibitor complexes can readily be prepared by incubating HPPD preparations with labelled or unlabelled inhibitor and then, after suitable periods, optionally rapidly separating the thus formed enzyme inhibitor complex from excess inhibitor by any suitable method such as ultrafiltration, binding to filters or exchange down a gel filtration column. Exchange reactions with the, thus prepared enzyme inhibitor complex is then initiated by addition of, as appropriate, excess labelled or unlabelled inhibitor. […] Many methods such as radiometric, fluorimetric, NMR, fluorescence depolarisation, EPR, Mossbauer, UV/VIS spectrophotometry etc. or phonon resonance can, in principle, be used to monitor the enzyme/ligand exchange reactions and, particularly in this case where the enzyme contains an iron atom at the ligand binding site. Optionally, the monitoring method may be continuous (as, for example, with scintillation proximity/bead-based methods) or, discontinuous, based upon collection of data at various timepoints wherein samples are removed and the bound and unbound label components rapidly separated and quantitated.
(§1) Values of koff can suitably be calculated by computer fitting based upon is numerical integration of the exchange data along with information on the active-site concentration of HPPD and upon kon values obtained as described below. […] In any event, koff values are always here calculated from the rate of the major slow exchange reaction.
^14C mesotrione is of specific activity 1.12 GBq/mmol. […] Following this initial binding reaction, exchange reactions are initiated by addition of cold mesotrione to a final concentration of 60 μM and 200 μl aliquots removed at various times to rapid chromatography down a NAP5 gel filtration column equilibrated in 50 mM BTP at pH 7 containing 0.1 M KCl, separation into fractions containing protein-bound or free radiolabel and liquid scintillation counting.
Nevertheless, here, for practical purposes, koff values are always here calculated from the rate of the major slow exchange reaction.
Not all test inhibitors are readily available in a radiolabelled form.

Wheat HPPD = Wheat HPPD (Triticum aestivum, UniProt A0A3B6NLC6); assay: as above; format: binding
Sequence of Wheat HPPD (A0A3B6NLC6 entry or part of it): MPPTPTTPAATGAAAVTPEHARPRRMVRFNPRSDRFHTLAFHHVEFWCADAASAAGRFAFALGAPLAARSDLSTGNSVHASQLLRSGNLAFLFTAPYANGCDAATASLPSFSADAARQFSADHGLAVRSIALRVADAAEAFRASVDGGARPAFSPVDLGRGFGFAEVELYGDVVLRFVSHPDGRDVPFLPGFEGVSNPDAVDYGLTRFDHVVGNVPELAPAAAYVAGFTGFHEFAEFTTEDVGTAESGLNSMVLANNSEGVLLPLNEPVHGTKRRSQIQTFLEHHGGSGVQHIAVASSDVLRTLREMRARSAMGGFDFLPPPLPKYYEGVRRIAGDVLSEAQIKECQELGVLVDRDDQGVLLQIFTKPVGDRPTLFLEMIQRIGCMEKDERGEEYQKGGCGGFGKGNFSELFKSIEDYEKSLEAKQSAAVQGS
Text: Herbicidal inhibitors of HPPD are found here to have generally low values of koff (in the range less than 0.0003 s^−1, often less than 0.000001 s^−1). It will be appreciated that many suitable methods known in the art for determining such low koff values are suitable for working the current invention. These include measuring rates of exchange of radio or otherwise labelled inhibitors either with or away from the enzyme inhibitor complex. For example enzyme inhibitor complexes can readily be prepared by incubating HPPD preparations with labelled or unlabelled inhibitor and then, after suitable periods, optionally rapidly separating the thus formed enzyme inhibitor complex from excess inhibitor by any suitable method such as ultrafiltration, binding to filters or exchange down a gel filtration column. Exchange reactions with the, thus prepared enzyme inhibitor complex is then initiated by addition of, as appropriate, excess labelled or unlabelled inhibitor. HPPD preparations suitable for use in the methods of the current invention are relatively unpurified, buffer-exchanged, supernatant fractions of spun crude lysates of E. coli strains engineered to express the HPPD enzyme of interest at a level of, typically, about 0.25-10% of the total soluble protein. Many methods such as radiometric, fluorimetric, NMR, fluorescence depolarisation, EPR, Mossbauer, UV/VIS spectrophotometry etc. or phonon resonance can, in principle, be used to monitor the enzyme/ligand exchange reactions and, particularly in this case where the enzyme contains an iron atom at the ligand binding site. Optionally, the monitoring method may be continuous (as, for example, with scintillation proximity/bead-based methods) or, discontinuous, based upon collection of data at various timepoints wherein samples are removed and the bound and unbound label components rapidly separated and quantitated.
as §1, with “reaction. It will be appreciated that within the scope of the current invention many methods of making the desired kinetic comparisons are possible without explicit or rigorous determination of off rates but, based upon the same underlying principle, will achieve the same selection result.” for “reaction.”
The dissociation rates (off rates) of inhibitors selected from Formula 1 and/or 2 and/or 3 and/or 4 from the complexes that they form with test and control HPPD enzymes are suitably measured in a number of ways. Thus, for example, the rates of dissociation of mesotrione, a compound selected from Formula 1 and of the diketonitrile of isoxaflutole, a compound selected from Formula 3 from their respective complexes with, test, wheat HPPD and with, control, Arabidopsis HPPD are compared. The method and results from a typical test are as follows.
^14C mesotrione is of specific activity 1.12 GBq/mmol. This is ˜95% pure radiochemically by TLC and based upon the proportion of material tight-binding to HPPD. Arabidopsis and, (test), wheat HPPD are each diluted to a concentration of ˜0.45 and 0.54 μM, respectively into 1.6 ml of 50 mM Bis-Tris propane buffer at pH 7.0 containing 25% glycerol, 25 mM sodium ascorbate and 3 mg/l of bovine catalase (Sigma C3155˜50,000 units/mg) containing […] ^14C mesotrione and left to react at 25 C for 2.5-3 h. Following this initial binding reaction, exchange reactions are initiated by addition of cold mesotrione to a final concentration of 60 μM and 200 μl aliquots removed at various times to rapid chromatography down a NAP5 gel filtration column equilibrated in 50 mM BTP at pH 7 containing 0.1 M KCl, separation into fractions containing protein-bound or free radiolabel and liquid scintillation counting. […]

[1] = Kd, value obtained + glycerol (in parentheses)
[2] = Kd, without glycerol, Kd = koff/kon
[3] = dissociation constant (Kd), in water at pH 7.0 and at 25 C

Compound | Kd (Arabidopsis HPPD; [1]) | Kd (Arabidopsis HPPD; [2]) | Kd (Wheat HPPD; [1]) | Kd (Wheat HPPD; [2]) | Kd (Wheat HPPD; [3]) | Kd (Arabidopsis HPPD) | ratio Kd2/Kd4, structure II to structure VII (Arabidopsis HPPD) | ratio koff2/koff4, structure II to structure VII (Arabidopsis HPPD) | koff (Arabidopsis HPPD; without 25% v/v glycerol, exchange with 14C mesotrione) | koff (Arabidopsis HPPD; − glycerol) | ratio Kd2/Kd4, structure II to structure VII (Wheat HPPD) | ratio koff2/koff4, structure II to structure VII (Wheat HPPD) | koff (Wheat HPPD; in water at pH 7.0 and at 25 C, values of Table 3 restated) | koff (Wheat HPPD; pH 7, in water at pH 7.0 and at 25 C, values of Table 3 restated) | koff (Wheat HPPD; − glycerol)
CS(=O)(=O)c1ccc(C(=O)C2C(=O)CCCC2=O)c([N+](=O)[O-])c1 [Structure I, 2-(Nitro-4-methanesulphonylbenzoyl)-cyclohexane-1,3-dione, reference compound] | 0.021 nM | 0.014 nM | 6.33 nM | 7.41 nM | 6.5 to 7.5 nM | – | – | – | – | – | – | – | – | – | –
Cc1nc(C(F)(F)F)ccc1C(=O)C1C(=O)C2CCC(C2)C1=O (centres unmarked) [Structure II] | – | – | – | 6.73 nM | 6.5 to 7.5 nM | 0.11 nM | 3.4 | 11 and 8.6 | ~1.16e-05 s⁻¹ | 1.16e-05 s⁻¹ | 38 | 30 and 42 | 0.00035 s⁻¹ | 0.00025 s⁻¹ | 0.00025 s⁻¹ and 0.00035 s⁻¹
